From patent US5849587A, “Method of inhibiting viral replication in eukaryotic cells and of inducing apoptosis of virally-infected cells” (Cornell Research Foundation, Inc., priority 1995, dated 1998)
“Also recorded” adds a separate entry of the source.

Tests used:
[1] = tested on: viral Gag mRNA (Rev-dependent transcripts); assay: Polysomal localization of viral Gag mRNA in PMA-induced ACH-2 cells; format: cell-based, HIV-1; conditions: 200 μM
Experimental: (§1) 142, 431-438 (1989), which is hereby incorporated by reference]. However, vigorous HIV-1 production by ACH-2 cells is induced by addition of the phorbol ester PMA [Pomerantz et al., Cell 61, 1271-1276 (1990) and Michael et al., J. Virol 65, 1291-1303 (1991), which are hereby incorporated by reference]. This system was selected for these experiments. Logarithmically growing ACH-2 cells, suspended at a concentration of 3×10^5 /ml, were incubated with the hypusine inhibitors mimosine and HK-1 at a final concentration of 200 μM. After 8 hours, viral replication was activated by addition of PMA to these cells and to untreated controls (100 ng/ml final PMA concentration). […] An aliquot of each fraction was analyzed by slot blotting, using the pXC-1 genomic ribosomal DNA probe from rat containing the 18S rRNA coding sequence [Rimarachin, Szabo et al., In Vitro 28A, 705-707 (1992), which is hereby incorporated by reference], to determine the location within the gradient of 18S rRNA, i.e., the distribution of polysomes vs. monosomes. […] Following electrophoresis, the radio-labeled PCR products were visualized by autoradiography according to routine techniques, and the band intensities quantified by densitometric analysis and expressed relative to total product per gradient.

GAPDH mRNA = assay: Polysomal localization of cellular GAPDH mRNA in PMA-induced ACH-2 cells; format: cell-based, human; conditions: 200 μM, FIG. 6
Experimental: as §1

[2] = tested on: deoxyhypusyl hydroxylase (DOHH); conditions: previously established, Hanauske-Abel et al.; cited from earlier work
[3] = tested on: cellular deoxyhypusyl hydroxylase; conditions: Hanauske-Abel et al. 1994; cited from earlier work

Compound: N[C@@H](Cn1ccc(=O)c(O)c1)C(=O)O [L-Mimosine]
- polysomal localization of viral Gag mRNA ([1]; FIG. 6): redirects a significant portion of the Rev-dependent Gag mRNAs into the non-polysomal fractions
- polysomal localization of viral Gag mRNA ([1]; FIG. 6, listed as minosine): shifted away from the polysomal protein producing machinery into the pool of monosomal/free MRNA
- polysomal localization of GAPDH mRNA (GAPDH mRNA): did not affect the polysomal loading of cellular MRNA; also recorded: only a marginal effect on the distribution of GAPDH mRNA
- hypusine inhibition in cell-free system [2]: act as hypusine inhibitors in this cell-free system
- inhibition of purified and cellular deoxyhypusyl hydroxylase [3]: inhibit purified and cellular deoxyhypusyl hydroxylase
